Test results as given in paper PMC10578308, “Design of Synthetic Surrogates for the Macrolactone Linker Motif in Coibamide A” (ACS Medicinal Chemistry Letters, 2023).
Positions of bridges follow the written chain, without caps; N, C: chain ends. Non-standard residues stand in square brackets, D forms with d. Residues, ends and D or L forms follow the SMILES beside them. *: point of attachment. NMe2Val = CC(C)[C@@H](C(=O)*)N(C)C; NMeI = CC[C@H](C)[C@H](NC)C(=O)O; NMeT = CN[C@H](C(=O)O)[C@@H](C)O; NMeL = CN[C@@H](CC(C)C)C(=O)O; NMeDap = CN[C@@H](CN)C(=O)O; dHiv = CC(C)[C@@H](O)C(=O)O; NMeS = CN[C@@H](CO)C(=O)O; NMeA = CN[C@@H](C)C(=O)O; dNMeA = CN[C@H](C)C(=O)O

Legend:
[1] = system: HCT116 colon cancer cells; test: CellTiter-Glo viability assay, HCT116 cells; type: cell-based, human; conditions: 50% viability after 72-hr incubation, n = 3
Method: (§1) Viability Assays Using U87 MG Cells, HCT116 Cells and normal human dermal fibroblasts.
(§2) Human U87-MG glioblastoma, HCT116 colon cancer cells and normal human dermal fibroblasts were from American Type Culture Collection (ATCC, Manasses, VA). […]
[…] streptomycin (1% penicillin/streptomycin). HCT116 cells were cultured in McCoy’s 5A medium supplemented with 10% FBS and 1% penicillin/streptomycin. […]
(§3) (#PCS-201-041) from ATCC. All cells were grown under standard conditions and maintained at 37 °C in an atmosphere of 5% CO2. For analysis of biological activity, cells were seeded at 3,000 cells/well into 96-well plates and allowed to attach overnight. On the day of the experiment, all cells were treated at the same time with the test compound or vehicle (0.1% DMSO) and plates returned to the cell culture incubator for 72 h. The viability of cells was measured at 72 h using a CellTiter-Glo® Luminescent Cell Viability Assay (Promega Corp) and luminescent signals measured using a multi-mode microplate reader (Biotek Synergy HT). Concentration-response relationships were analyzed using GraphPad Prism Software version 9.5.1 (GraphPad Software, Inc., San Diego, CA), and CC50 values derived using nonlinear regression analysis fit to a logistic equation. […]

[2] = biological target: GLuc secretion (model Sec61 substrate) from U87-MG-GLuc cells (Homo sapiens, UniProt P61619); test: Gaussia luciferase (GLuc) secretory assay; type: cell-based; conditions: 18-h incubation, n = 3, read-out: IC50 (50% inhibition of GLuc expression)
Method: To investigate the mechanistic basis for cytotoxicity, all CbA derivatives were evaluated for their ability to inhibit expression of a model Sec61 substrate using U87-MG cells engineered to express a naturally secreted reporter protein, Gaussia luciferase (GLuc) (Tables 1 and 2). For these studies, U87-MG-GLuc cells were exposed to increasing concentrations of each peptide, or vehicle, for 18 h, and the cell culture medium was assayed for the presence of GLuc. […]
Gaussia Luciferase (GLuc) Secretory Assay
The generation of U87-MG cells expressing the secreted reporter Gaussia luciferase (GLuc) has been described previously.S5,S6 U87-MG-GLuc cells were cultured in Minimum Essential Medium (MEM) with Earl’s salts and L-glutamine (Corning Life Sciences), supplemented with 10% fetal bovine serum […]
(FBS; Hyclone, Logan, UT) and 100 U/mL penicillin and […] streptomycin (1% penicillin/streptomycin). All cells were grown under standard conditions and maintained at 37 °C in an atmosphere of 5% CO2. For analysis of biological activity, cells were seeded at 3,000 cells/well into 96-well plates and allowed to attach overnight. On the day of the experiment, all cells were treated at the same time with the test compound or vehicle (0.1% DMSO) and plates returned to the cell culture

[3] = system: normal human dermal fibroblasts (HDFs); test: CellTiter-Glo viability assay, normal human dermal fibroblasts; type: cell-based; conditions: 50% viability after 72-hr incubation, n = 3, read-out: HDF CC50
Method: as §1, §2
as §3, with “Human dermal fibroblasts were cultured in Fibroblast Basal Medium (#PCS-201-030) supplemented with Fibroblast Growth Kit (#PCS-201-041)” for “(#PCS-201-041)”

[4] = system: U87-MG glioblastoma cells; test: CellTiter-Glo viability assay, U87-MG cells; type: cell-based, human; conditions: 50% viability after 72-hr incubation, n = 3
Method: as §1
Human U87-MG glioblastoma, HCT116 colon cancer cells and normal human dermal fibroblasts were from American Type Culture Collection (ATCC, Manasses, VA). U87-MG cells were cultured in Minimum Essential Medium (MEM) with Earl’s salts and L-glutamine (Corning Life Sciences), supplemented with 10% fetal bovine serum (FBS; Hyclone, Logan, UT) and 100 U/mL penicillin and […] streptomycin (1% penicillin/streptomycin). HCT116 cells were cultured in McCoy’s 5A medium supplemented with 10% FBS and 1% penicillin/streptomycin. […]
as §3

[5] = system: human A549 lung cancer cells; test: MTS antiproliferative/cell viability assay in A549 cells; type: cell-based; conditions: for CC50: human A549 lung cancer cells, MTS, 72 h, n = 3, read-out: CC50 (concentration for a 50% decrease in viability)
Method: Next, we synthesized CbA derivatives 3a,b by Fmoc-based SPPS using Fmoc/Alloc protected lysine derivatives 4a,b, according to the synthetic procedure for CbA mimetics in our previous study (Scheme S2).[21] The bioactivity profile of the resulting peptides 3a,b was investigated by using a standard MTS antiproliferative/cell viability assay to assess the cytotoxic potential of CbA analogues against human A549 lung cancer cells (Table 1).
10% (v/v) fetal bovine serum at 37 °C in a 5% CO2-incubator. Viability assays using A549 cells were performed in 96-well plates (BD Falcon). A549 cells were seeded at 1000 cells/well in 90 μL of culture media, respectively, and were cultured for 24 h. Chemical compounds in DMSO were diluted 50-fold with the culture medium in advance. 30 μL of the chemical diluents were added. The final volume of DMSO in the medium was equal to 0.5% (v/v). The cells under chemical treatment were incubated for a further 72 h. The wells in the plates were washed twice with the cultured medium without phenol- […]
After 1-hour incubation with 100 μL of the medium, the cell culture in each well was supplemented with 20 μL of the MTS reagent (Promega), followed by incubation for additional 40 min. Absorbance at 490 nm of each well was measured using a Wallac 1420 ARVO SX multilabel counter (Perkin Elmer).
Three experiments were performed per condition and the averages of inhibition rates in each condition were evaluated to determine IC50 values using the GraphPad Prism software. […]

[6] = CellTiter-Glo viability assay, normal human dermal fibroblasts; type: cell-based; conditions: normal human dermal fibroblasts (HDFs), 50% viability after 72-hr incubation, n = 3, read-out: HDF CC50
Method: as §1, §2
as §3, with “Human dermal fibroblasts were cultured in Fibroblast Basal Medium (#PCS-201-030) supplemented with Fibroblast Growth Kit (#PCS-201-041)” for “(#PCS-201-041)”

[7] = system: endogenous VEGF-A secreted from human SF-268 glioblastoma cells; test: Detection of secreted VEGF-A by ELISA; type: cell-based; conditions: 24 h, Figure S5

Sequence of GLuc secretion (model Sec61 substrate) from U87-MG-GLuc cells (P61619 whole entry): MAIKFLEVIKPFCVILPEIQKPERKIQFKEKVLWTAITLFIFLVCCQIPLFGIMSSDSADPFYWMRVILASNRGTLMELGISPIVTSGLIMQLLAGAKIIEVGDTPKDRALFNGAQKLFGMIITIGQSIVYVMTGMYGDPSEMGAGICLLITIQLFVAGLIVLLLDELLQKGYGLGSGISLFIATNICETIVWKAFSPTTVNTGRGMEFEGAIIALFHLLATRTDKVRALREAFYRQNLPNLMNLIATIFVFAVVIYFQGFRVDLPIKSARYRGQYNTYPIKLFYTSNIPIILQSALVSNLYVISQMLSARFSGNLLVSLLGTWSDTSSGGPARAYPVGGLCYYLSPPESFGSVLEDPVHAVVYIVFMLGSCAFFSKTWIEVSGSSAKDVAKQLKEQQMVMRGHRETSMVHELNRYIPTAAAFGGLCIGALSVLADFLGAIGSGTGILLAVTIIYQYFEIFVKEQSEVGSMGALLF

SMILES: CC[C@H](C)[C@H]1C(=O)N[C@@H](C)C(=O)N(C)[C@@H](CC(C)C)C(=O)N[C@@H](Cc2ccc(OC)cc2)C(=O)N(C)[C@H](C)C(=O)N[C@H](C)[C@H](N(C)C(=O)[C@H](CC(C)C)N(C)C(=O)[C@H](COC)N(C)C(=O)[C@H](OC(=O)[C@H](C(C)C)N(C)C)C(C)C)C(=O)N(C)[C@@H](COC)C(=O)N1C [Peptide 16b]
- CC50 [1]: 3.4 ± 0.6 nM
- IC50 [2]: 0.04 ± 0.02 nM
- CC50 [3]: 3.9 ± 1.5 nM
- CC50 [4]: 2.2 ± 0.4 nM
- CC50 [5]: 1.3 ± 0.3 nM

SMILES: CC[C@H](C)[C@H]1C(=O)N[C@@H](C)C(=O)N(C)[C@@H](CC(C)C)C(=O)N[C@@H](Cc2ccc(OC)cc2)C(=O)N(C)[C@H](C)C(=O)N(C)C[C@H](N(C)C(=O)[C@H](CC(C)C)N(C)C(=O)[C@H](C)N(C)C(=O)[C@H](OC(=O)[C@H](C(C)C)N(C)C)C(C)C)C(=O)N(C)[C@@H](C)C(=O)N1C [Peptide 17b]
- CC50 [5]: 6500 nM

SMILES: CC[C@H](C)[C@H]1C(=O)N[C@@H](C)C(=O)N(C)[C@@H](CC(C)C)C(=O)N[C@@H](Cc2ccc(-c3ccccc3)cc2)C(=O)N(C)[C@H](C)C(=O)N[C@H](C)[C@H](N(C)C(=O)[C@H](CC(C)C)N(C)C(=O)[C@H](COC)N(C)C(=O)[C@H](OC(=O)[C@H](C(C)C)N(C)C)C(C)C)C(=O)N(C)[C@@H](COC)C(=O)N1C [Peptide 16c]
- CC50 [1]: 0.8 ± 0.23 nM
- IC50 [2]: 0.08 ± 0.03 nM
- CC50 [3]: 0.38 ± 0.08 nM
- CC50 [4]: 0.6 ± 0.2 nM
- fold more potent (cytotoxicity) than 1a ([5]; A549 cells, CC50 compared with 1a): approximately 5 fold
- CC50 [5]: 0.27 ± 0.1 nM

SMILES: CC[C@H](C)[C@H]1C(=O)N[C@@H](C)C(=O)N(C)[C@@H](CC(C)C)C(=O)N[C@@H](Cc2ccc(OC)cc2)C(=O)N(C)[C@H](C)C(=O)NC[C@H](N(C)C(=O)[C@H](CC(C)C)N(C)C(=O)[C@H](C)N(C)C(=O)[C@H](OC(=O)[C@H](C(C)C)N(C)C)C(C)C)C(=O)N(C)[C@@H](C)C(=O)N1C [Peptide 17a] (NMe2Val-[dHiv][NMeA][NMeL][NMeDap][NMeA][NMeI]A[NMeL]Y(Me)[dNMeA]; lactam 4-C)
- CC50 [1]: 60 ± 4 nM
- IC50 [2]: 30 ± 3.9 nM
- CC50 [3]: 123 ± 25 nM
- CC50 [4]: 48 ± 3 nM

SMILES: CC[C@H](C)[C@H]1C(=O)N[C@@H](C)C(=O)N(C)[C@@H](CC(C)C)C(=O)N[C@@H](Cc2ccc(OC)cc2)C(=O)N(C)[C@H](C)C(=O)O[C@H](C)[C@H](N(C)C(=O)[C@H](CC(C)C)N(C)C(=O)[C@H](C)N(C)C(=O)[C@H](OC(=O)[C@H](C(C)C)N(C)C)C(C)C)C(=O)N(C)[C@@H](C)C(=O)N1C [Peptide 1b, reference compound] (NMe2Val-[dHiv][NMeA][NMeL][NMeT][NMeA][NMeI]A[NMeL]Y(Me)[dNMeA]; ester 4-C)
- CC50 [1]: 3.9 ± 0.5 nM
- IC50 [2]: 2 ± 0.3 nM
- CC50 [3]: 4.6 ± 1.5 nM
- CC50 [4]: 2.6 ± 0.1 nM
- CC50 [5]: 3.1 ± 0.8 nM

SMILES: CC[C@H](C)[C@H]1C(=O)N[C@@H](C)C(=O)N(C)[C@@H](CC(C)C)C(=O)N[C@@H](Cc2ccc(OC)cc2)C(=O)N(C)[C@H](C)C(=O)O[C@H](C)[C@H](N(C)C(=O)[C@H](CC(C)C)N(C)C(=O)[C@H](COC)N(C)C(=O)[C@H](OC(=O)[C@H](C(C)C)N(C)C)C(C)C)C(=O)N(C)[C@@H](COC)C(=O)N1C [Coibamide A (1a), coibamide A] (NMe2Val-[dHiv][NMeS](Me)[NMeL][NMeT][NMeS](Me)[NMeI]A[NMeL]Y(Me)[dNMeA]; ester 4-C)
- CC50 [1]: 2.7 ± 0.5 nM
- IC50 [2]: 1.1 ± 0.3 nM
- CC50 at 72 h [6]: 6.7 ± 2.1 nM
- CC50 [4]: 50 ± 6 nM
- CC50 [5]: 1.5 ± 0.4 nM

SMILES: CC[C@H](C)[C@H]1C(=O)N[C@@H](C)C(=O)N(C)[C@@H](CC(C)C)C(=O)N[C@@H](Cc2ccc(OC)cc2)C(=O)N(C)[C@H](C)C(=O)N[C@H](C)[C@H](N(C)C(=O)[C@H](CC(C)C)N(C)C(=O)[C@H](C)N(C)C(=O)[C@H](OC(=O)[C@H](C(C)C)N(C)C)C(C)C)C(=O)N(C)[C@@H](C)C(=O)N1C [Peptide 16a]
- CC50 [1]: 4.5 ± 0.5 nM
- IC50 [2]: 0.71 ± 0.09 nM
- CC50 [3]: 4.6 ± 1.4 nM
- CC50 [4]: 3.9 ± 0.5 nM
- CC50 [5]: 3.6 ± 1.4 nM

SMILES: CC[C@H](C)[C@H]1C(=O)N[C@@H](C)C(=O)N(C)[C@@H](CC(C)C)C(=O)N[C@@H](Cc2ccc(OC)cc2)C(=O)N(C)[C@H](C)/C=C/[C@H](C)[C@H](N(C)C(=O)[C@H](CC(C)C)N(C)C(=O)[C@H](C)N(C)C(=O)[C@H](OC(=O)[C@H](C(C)C)N(C)C)C(C)C)C(=O)N(C)[C@@H](C)C(=O)N1C [Peptide 3b]
- CC50 [1]: 11 ± 1 nM
- IC50 [2]: 13 ± 2 nM
- CC50 [3]: 8.3 ± 2.1 nM
- CC50 [4]: 6.2 ± 0.1 nM
- fold more potent (cytotoxicity) than 3a ([5]; A549 cells, CC50 compared with 3a): 10 fold
- CC50 [5]: 2.6 ± 0.4 nM

SMILES: CC[C@H](C)[C@H]1C(=O)N[C@@H](C)C(=O)N(C)[C@@H](CC(C)C)C(=O)N[C@@H](Cc2ccc(OC)cc2)C(=O)N(C)[C@H](C)CC[C@H](C)[C@H](N(C)C(=O)[C@H](CC(C)C)N(C)C(=O)[C@H](C)N(C)C(=O)[C@H](OC(=O)[C@H](C(C)C)N(C)C)C(C)C)C(=O)N(C)[C@@H](C)C(=O)N1C [Peptide 3a]
- expression of endogenous secreted VEGF-A (in words) [7]: statistically significant and concentration-dependent decreases
- CC50 [1]: 121 ± 23 nM
- IC50 [2]: 18 ± 1 nM
- CC50 [3]: 213 ± 29 nM
- CC50 [4]: 56 ± 2 nM
- CC50 [5]: 41 ± 4 nM
